The subject of one data set is C. elegans strain AM141. The experiment in a line: Q40::YFP aggregate fluorescence per worm. Type of data set: in vivo. The following applies: 5 days post-hatch. An excerpt:
C. elegans strains: Nematode strains used in this study were all obtained from the Caenorhabditis Genetics Center (CGC; Minneapolis, MN). Nematode models of Alzheimer's disease-like arnyloidosis were CL4176 [smg-1^ts; myo-3p::Aβ1-42::let-851 3′-UTR; rol-6(sul006)] expressing human Aβ1-42 in muscle; and CL2355 [smg-l^ts; snb-1::Aβ1-42::3′UTR(long); mtl-2::gfp] expressing human Aβ1-42 in all neurons. Strain AM141 expresses a polyglutamine reporter (Q40::YFP) in muscle, and thus serves as a model of glutamine-tract aggregation similar to that observed in Huntington disease and several other neuropathologies (Morley et al., 2002). All strains were propagated at 20° C. on2% (w/v) agar plates containing nematode growth medium (NGM), overlaid with E col strain OP50 unless otherwise noted.
(§1) RNAi in C.elegans. RNA-mediated interference (RNAi) is achieved by feeding bacteria that express double-stranded RNA corresponding to an exonic fragment of the mRNA target (Ayyadevara et al., 2016c; Fire et al., 1991; Fire et al., 1998; Kakraba et al., 2019). Briefly, worm cultures were synchronized by alkaline hypochlorite lysis to release unlaid eggs. […] Worms on adult day 3 (5.5 days post-hatch) were imaged to assess total aggregate fluorescence (strain AM141), or were assessed for paralysis (VH255) or chemotaxis toward n-butanol (CL2355).

For another data set, the system named is SH-SY5Y-APPSw cells. The experiment in a line: Total sarkosyl-insoluble aggregate protein, SYPRO Ruby stained gels. Type of data set: cell-based, human. The following applies: for suppression of aggregate protein: cells treated 48 h, sarkosyl-insoluble fraction. How it is done: MSR1 treatment of SH-SY5Y-APPSw, cells. Human neuroblastoma (SH-SY5Y-APPSw) cells were grown as previously described (Kakraba et al., 2)19, Liu et al., 2005). SH-SY5Y-APPSw cells, expressing an aggregation-prone “Swedish” double mutant of amyloid precursor protein (APPSw), were grown in DMEM plus 10% (v/v) FBS at 37° C. Cells were suspended in trypsin/EDTA and rinsed in buffer prior to replating or harvesting. Immediately preceding assay, cells were grown 48 hr in the presence of 10-μM MSR1 dissolved in DMSO (0.02% final concentration), or 0.02% DMSO (solvent alone) for control cells. Cells were harvested, total protein was isolated, and aggregate proteins were purified as described below.
Isolation of aggregate proteins. Cultured human cells were collected, flash frozen in liquid nitrogen, and homogenized at 0° C. in the presence of buffer containing nonionic detergent (1% v/v NP40, 20-mM Hepes pH 7.4, 300-mM NaCl, 2-mM MgCl2, and protease/phosphatase inhibitors [CalBiochem]). Lysates were centrifuged (5 min, 3000 rpm at 4° C.) to remove debris. After removal of cytosolic proteins (soluble in 1% NP40 nonionic detergent) by centrifugation (18 min, 13,000×g at 4° C.), protein pellets were brought to pH 7.4 with 0.1-M HEPES buffer containing 1% v/v sarkosyl(sodium lauryl sarcosinate) and 5-mM EDTA, and centrifuged 30 min at 100,000×g. Pellet proteins (the sarkosyl-insoluble fraction) were resuspended in Laemmli loading buffer (containing 50-mM dithiothreitol and 2% v/v SDS, sodium dodecyl sulfate), heated 5 min at 95° C. to dissolve proteins soluble in this buffer, and separated by electrophoresis on 4-20% polyacrylamide gradient gels containing 1% v/v SDS. Gels were stained with SYPRO Ruby (ThermoFisher) or Coomassie Blue to visualize protein. Gel lanes were robotically cut into 1-mm slices, and digested thoroughly with trypsin. Proteins in each slice were identified by mass spectrometry as described previously (Ayyadevara et al., 2015; Ayyadevara et al., 2016a; Ayyadevara et al., 2016b; Ayyadevara et al., 2016c; Ayyadevara et al., 2016d; Balasubramaniam et al., 2018).

The test system of a further data set is C. elegans strain VH255. Briefly: Paralysis assay in human tau-expressing C. elegans. Type of data set: in vivo. As to conditions: 1-μM; compared with siRNA against ifp-1. On the procedure:
Paralysis assays in human tau-expressing C. elegans strain VH255. Transgenic C. elegans strain VH255, with pan-neuronal expression of human tau (Brandt et al., 2009), are maintained at 25° C. on agar plates overlaid with a lawn of E. coli (OP50) bacteria. Worms are lysed in alkaline hypochlorite solution to obtain unlaid eggs used to generate a synchronized culture. The eggs were then transferred to 100-mm NGM-agar plates, to which MSR1 or MSR2 had been added to a final concentration of 1 μM. For ifp-1 RNAi knockdown, the bacterial lawn consisted of strain HT115 expressing an exonic segment of double-stranded ifp-I RNA (see next section). The worms were washed and added to fresh, drug-equilibrated plates every two days. Assays were performed on day-3 adults to assess the fraction of paralyzed worms.

In the next data set the test system is C. elegans strain CL2355. Briefly: Chemotaxis to n-butanol in Aβ1-42 expressing C. elegans. As to conditions: 0.1 μM. Type of data set: in vivo. How it is done:
Chemotaxis and paralysis assay)s in Aβ-tragsgenic C elegans strains CL2355 and CL4176. Transgenic C. elegans strains, expressing Aβ1-42 in neurons (C2355) or in muscle (CL4176), were grown at 20° C. with ample 1. coli (OP50) bacteria, and on day 1 of adult life worms were lysed to release eggs and thus generate a synchronized cohort. Eggs were then placed on I00-mm NGM-agar Petri dishes seeded with RNAi-expressing bacteria (E coil H-T1′15) targeting a GFAP orthologue, or empty-vector control bacteria. Worms at the L3-L4 transition were upshifted to 25.5° C. to induce human Aβ1-42 transgene expression and assayed after 48 hours. Chemotaxis (Dosanjh et al., 2010) and paralysis (Dostal and Link, 2010) assays were performed as described previously (Ayyadevara et al., 2017; Ayyadevara et al., 2016b; Ayyadevara et al., 2016d; Kakraba et al., 2019).
as §1

The next data set relates to neuroblastoma cells. The experiment in a line: Initial testing for cytotoxicity in neuroblastoma cells. Format: cell-based, human. The following applies: data not shown.
A further data set relates to C. elegans. Briefly: Effect on C. elegans development. Format: in vivo. As to conditions: all doses tested, data not shown.

From patent publication US20250041270A1, “SMALL MOLECULE DRUGS THAT REDUCE PROTEIN AGGREGATION” (BIOVENTURES, LLC, priority 2021, published 2025) come the findings set out here.

SMILES strings stand for the structures.

Consider `O=C(NC[C@H]1CC[C@H](CO)CC1)c1ccc(N2CCCC2)c(Cl)c1` [MSR1, 3-chloro-N-{[trans-4-(hydroxymethyl)cyclo-hexyl]methyl}-4-pyrrolidin-1-ylbenzamide], for which the “reduction of aggregate intensity per worm” value in the data set on C. elegans strain AM141 (10 μM) is on record as roughly 50%; in the data set with C. elegans strain AM141 (0.1-μM), 35%. Also, the “suppression of aggregate protein” value with SH-SY5Y-APPSw cells was 60-75%. The “suppression of protein aggregation” value with SH-SY5Y-APPSw cells (summary statement: a variety of model systems) was 60-75%. Also, the “paralysis caused by tau aggregation” value in the data set with C. elegans strain VH255 is “alleviated to a similar extent”. In the data set on C. elegans strain CL2355, the “chemotaxis restored to” value is roughly 90%.

As to `O=C(c1cc2c([nH]c1=O)CCCC2)N1CCN(c2ccc(Cl)cn2)CC1` [MSR2, 3-{[4-(5-chloro-2-pyridinyl)-1-piperazinyl]carbonyl}-5,6,7,8-tetrahydro-2(1H)-quinolinone], the “suppression of aggregate protein” value in the data set on SH-SY5Y-APPSw cells was “did not significantly reduce”.

With `O=C(c1ccc(N2CCCC2)c(Cl)c1)N1CCN(c2ccccn2)CC1` [MSR3, 1-(3-chloro-4-pyrrolidin-1-ylbenzoyl)-4-pyridin-2-ylpiperazine], the cytotoxicity result in the data set with neuroblastoma cells is on record as “cytotoxic”. Further, the C. elegans development result in the data set on C. elegans is given as “delay C. elegans development”.
